From US20230089073A1 (Carmot Therapeutics, Inc., priority 2021, published 2023)

Molecular target: T1, human GLP-1 receptor (Homo sapiens, UniProt P43220)
T1 construct: expressed in transfected cells
Assay: GLP-1R cAMP Assay
Assay type: cell-based
Conditions: cAMP accumulation in CHO cells stably overexpressing the human GLP-1 receptor; 30 min treatment; HitHunter cAMP kit; read-out: EC50
Method in brief: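 CHO cells stably overexpressing human GLP-1R, 10,000 cells/well, treated with compound in 20-point dose response in triplicate for 30 min. cAMP accumulation read by enzyme-complementation luminescence after lysis and overnight incubation; dose-response curves fitted.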

T1 sequence (P43220 24-463): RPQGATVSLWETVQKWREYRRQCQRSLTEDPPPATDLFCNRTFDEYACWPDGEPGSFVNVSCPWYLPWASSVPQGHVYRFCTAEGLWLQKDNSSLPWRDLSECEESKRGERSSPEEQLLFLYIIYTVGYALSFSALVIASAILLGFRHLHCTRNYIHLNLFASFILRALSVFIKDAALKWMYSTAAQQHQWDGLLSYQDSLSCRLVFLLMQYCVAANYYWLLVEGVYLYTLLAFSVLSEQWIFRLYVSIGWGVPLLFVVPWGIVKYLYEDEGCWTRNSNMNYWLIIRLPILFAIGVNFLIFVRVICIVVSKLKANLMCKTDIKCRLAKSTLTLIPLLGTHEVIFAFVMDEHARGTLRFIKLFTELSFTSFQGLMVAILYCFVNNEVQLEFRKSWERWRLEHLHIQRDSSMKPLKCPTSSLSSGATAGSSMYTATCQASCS

| SMILES | EC50 [nM] |
| --- | --- |
| O=C(O)c1ccc2nc(CN3CCN(C(=O)c4ccc(OCc5ccc(Cl)cc5Cl)o4)CC3)n(C[C@@H]3CCO3)c2c1 [Example 73, (S)-2-((4-(5-((2,4-Dichlorobenzyl)oxy)furan-2-carbonyl)piperazin-1-yl)methyl)-1-(oxetan-2-ylmethyl)-1H-benzo[d]imidazole-6-carboxylic acid] | > 500 |
| O=C(O)c1ccc2nc(CN3CCN(Cc4ccc(OCc5ccc(Cl)cc5Cl)o4)CC3)n(C[C@@H]3CCO3)c2c1 [Example 74, (S)-2-((4-((5-((2,4-Dichlorobenzyl)oxy)furan-2-yl)methyl)piperazin-1-yl)methyl)-1-(oxetan-2-ylmethyl)-1H-benzo[d]imidazole-6-carboxylic acid] | > 500 |
| Cc1ccc(N(C)Cc2cccc(C(=O)N3CCN(Cc4nc5ccc(C(=O)O)cc5n4C[C@@H]4CCO4)CC3)c2)c(Cl)c1 [Example 78, (S)-2-((4-(3-(((2-Chloro-4-methylphenyl)(methyl)amino)methyl)benzoyl)piperazin-1-yl)methyl)-1-(oxetan-2-ylmethyl)-1H-benzo[d]imidazole-6-carboxylic acid] | > 500 |
| O=C(O)c1ccc2nc(CN3CCc4[nH]c5c(OCc6ccc(Cl)cc6F)cccc5c4C3)n(C[C@@H]3CCO3)c2c1 [Example 90, (S)-2-((6-((4-Chloro-2-fluorobenzyl)oxy)-1,3,4,5-tetrahydro-2H-pyrido[4,3-b]indol-2-yl)methyl)-1-(oxetan-2-ylmethyl)-1H-benzo[d]imidazole-6-carboxylic acid] | > 500 |
| N#Cc1ccc(COc2cccc(C3CCN(C(=O)c4ccc(C(=O)O)nc4)CC3)n2)c(F)c1 [Example 91, 5-(4-(6-((4-Cyano-2-fluorobenzyl)oxy)pyridin-2-yl)piperidine-1-carbonyl)picolinic acid] | > 500 |
| Cc1ccc(N(C)c2cc(C(=O)N3CCN(Cc4nc5ccc(C(=O)O)cc5n4C[C@@H]4CCO4)CC3)ccn2)c(Cl)c1 [Example 99, (S)-2-((4-(2-((2-Chloro-4-methylphenyl)(methyl)amino)isonicotinoyl)piperazin-1-yl)methyl)-1-(oxetan-2-ylmethyl)-1H-benzo[d]imidazole-6-carboxylic acid] | 50 to 500 |
| O=C(O)c1ccc2nc(CN3CCN(C(=O)c4cnc(COc5ccc(Cl)cc5Cl)o4)CC3)n(C[C@@H]3CCO3)c2c1 [Example 102, (S)-2-((4-(2-((2,4-Dichlorophenoxy)methyl)oxazole-5-carbonyl)piperazin-1-yl)methyl)-1-(oxetan-2-ylmethyl)-1H-benzo[d]imidazole-6-carboxylic acid] | 50 to 500 |
| Cc1ccc(N(C)c2cccc(C3(N4CCN(Cc5nc6ccc(C(=O)O)cc6n5C[C@@H]5CCO5)CC4)CC3)c2)c(Cl)c1 [Example 105, (S)-2-((4-(1-(3-((2-chloro-4-methylphenyl)(methyl)amino)phenyl)cyclopropyl)piperazin-1-yl)methyl)-1-(oxetan-2-ylmethyl)-1H-benzo[d]imidazole-6-carboxylic acid] | > 500 |
| Cc1ccc(N(C)c2cccc(C=C3CCN(Cc4nc5ccc(C(=O)O)cc5n4C[C@@H]4CCO4)CC3)c2)c(Cl)c1 [Example 106, (S)-2-((4-(3-((2-chloro-4-methylphenyl)(methyl)amino)benzylidene)piperidin-1-yl)methyl)-1-(oxetan-2-ylmethyl)-1H-benzo[d]imidazole-6-carboxylic acid] | 50 to 500 |
| Clc1ccc(COc2cccc(C3=CCN(Cc4ccc(-c5nn[nH]n5)nc4)CC3)n2)c(Cl)c1 [Example 110, 1′-((6-(2H-Tetrazol-5-yl)pyridin-3-yl)methyl)-6-((2,4-dichlorobenzyl)oxy)-1′,2′,3′,6′-tetrahydro-2,4′-bipyridine] | 50 to 500 |
| Cc1ccc(N(C)c2cccc(OC3CCN(Cc4nc5ccc(C(=O)O)cc5n4C[C@@H]4CCO4)CC3)c2)c(Cl)c1 [Example 111, (S)-2-((4-(3-((2-Chloro-4-methylphenyl)(methyl)amino)phenoxy)piperidin-1-yl)methyl)-1-(oxetan-2-ylmethyl)-1H-benzo[d]imidazole-6-carboxylic acid] | 50 to 500 |
| Cc1ccc(C(C)c2cccc(C(=O)N3CCN(Cc4nc5ccc(C(=O)O)cc5n4C[C@@H]4CCO4)CC3)c2)c(Cl)c1 (stereo partly drawn) [Example 112, 2-((4-(3-(1-(2-Chloro-4-methylphenyl)ethyl)benzoyl)piperazin-1-yl)methyl)-1-(((S)-oxetan-2-yl)methyl)-1H-benzo[d]imidazole-6-carboxylic acid] | 50 to 500 |

Results, then the compound that gave them:

| EC50 [nM] | SMILES |
| --- | --- |
| < 50 | O=C(O)c1ccc2nc(CN3CCC(Cc4ccc(COc5ccc(Cl)cc5Cl)o4)CC3)n(C[C@@H]3CCO3)c2c1 [Example 72, (S)-2-((4-((5-((2,4-Dichlorophenoxy)methyl)furan-2-yl)methyl)piperidin-1-yl)methyl)-1-(oxetan-2-ylmethyl)-1H-benzo[d]imidazole-6-carboxylic acid] |
| < 50 | N#Cc1ccc(COc2cccc(C3CCN(C(=O)c4ccc(-c5nnn[nH]5)nc4)CC3)n2)c(F)c1 [Example 83, 4-(((6-(1-(6-(1H-Tetrazol-5-yl)nicotinoyl)piperidin-4-yl)pyridin-2-yl)oxy)methyl)-3-fluorobenzonitrile] |
| 50 to 500 | Cc1cc(C(C)C)ccc1Oc1cccc(C(=O)N2CCN(Cc3nc4ccc(C(=O)O)cc4n3C[C@@H]3CCO3)CC2)c1 [Example 89, (S)-2-((4-(3-(4-Isopropyl-2-methylphenoxy)benzoyl)piperazin-1-yl)methyl)-1-(oxetan-2-ylmethyl)-1H-benzo[d]imidazole-6-carboxylic acid] |
| 50 to 500 | N#Cc1ccc(COc2cccc(N3CCN(C(=O)c4ccc(-c5nnn[nH]5)nc4)CC3)n2)c(F)c1 [Example 92, 4-(((6-(4-(6-(1H-Tetrazol-5-yl)nicotinoyl)piperazin-1-yl)pyridin-2-yl)oxy)methyl)-3-fluorobenzonitrile] |
| 50 to 500 | Cc1ccc(N(C)c2cc(C(=O)N3CCN(Cc4nc5ccc(C(=O)O)cc5n4C[C@@H]4CCO4)CC3)ccc2F)c(Cl)c1 [Example 95, (S)-2-((4-(3-((2-Chloro-4-methylphenyl)(methyl)amino)-4-fluorobenzoyl)piperazin-1-yl)methyl)-1-(oxetan-2-ylmethyl)-1H-benzo[d]imidazole-6-carboxylic acid] |
| < 50 | Cc1ccc(OCc2cccc(CC3CCN(Cc4nc5ccc(C(=O)O)cc5n4C[C@@H]4CCO4)CC3)n2)c(C#N)c1 [Example 114, (S)-2-((4-((6-((2-Cyano-4-methylphenoxy)methyl)pyridin-2-yl)methyl)piperidin-1-yl)methyl)-1-(oxetan-2-ylmethyl)-1H-benzo[d]imidazole-6-carboxylic acid] |
| < 50 | Cc1cc(C2CC2)ccc1N(C)c1cccc(C(=O)N2CCN(Cc3nc4ccc(C(=O)O)cc4n3C[C@@H]3CCO3)CC2)c1 [Example 115, (S)-2-((4-(3-((4-Cyclopropyl-2-methylphenyl)(methyl)amino)benzoyl)piperazin-1-yl)methyl)-1-(oxetan-2-ylmethyl)-1H-benzo[d]imidazole-6-carboxylic acid] |
| < 50 | Cc1ccc(N(C)c2cccc(CC3CCN(Cc4nc5ccc(C(=O)O)cc5n4C[C@@H]4CCO4)CC3)c2)c(Cl)c1 [Example 116, (S)-2-((4-(3-((2-Chloro-4-methylphenyl)(methyl)amino)benzyl)piperidin-1-yl)methyl)-1-(oxetan-2-ylmethyl)-1H-benzo[d]imidazole-6-carboxylic acid] |
